Results on two compounds are retold here after patent US20260138981A1, “DIHYDROFOLATE REDUCTASE INHIBITORS FOR ANTI-BIOTIC RESISTANT INFECTIONS” (THE TRUSTEES OF PRINCETON UNIVERSITY, priority 2022, published 2026).

In general, MIC refers to the smallest concentration in the dilution series that meets the test's criterion for growth inhibition.

The structures appear in SMILES notation.

The test system of assay [1] is P. aeruginosa PA14 nfxB T39P mutants. The assay can be described thus: Cross resistance of fluorofolin-resistant mutant. It is filed as cell-based. The note with it: 2×MIC. From the text: NfxB is a transcriptional regulator protein that represses expression of the MexCD-OprN efflux pump.
Another assay has as its system P. aeruginosa PA14. The assay can be described thus: MIC in LB Broth. The class given is cell-based. The conditions noted are these: Pseudomonas aeruginosa; P. aeruginosa PA14, compound alone. As for the experimental part:
The minimum inhibitory concentration is defined as the lowest concentration of antibiotic at which no visible growth was detected after 16 hours at 37° C. Overnight cultures were diluted 1:150 in LB Broth and added to a 96-well plate. Antibiotics were serially diluted 1:2 and added to columns of the 96-well plate and grown at 37° C. with continuous shaking. Cell growth was measured by optical density (OD600). MIC assays were performed in either BioTek Synergy HT (Winooski, VT) or Tecan InfiniteM200 Pro (Männedorf, CH) microplate readers.

The test system of assay [2] is folate metabolism in P. aeruginosa. Description: Metabolomics (LC-MS metabolite abundance). The class given is cell-based. The note with it: PA14, 2×MIC for 15 min, vs solvent control; P=0.0186 and 0.0196. As for the experimental part:
Metabolite abundance was quantified in comparison to the solvent only control. Data represents mean±SD for 3 biological replicates. P values were calculated using unpaired t-test using Prism 9 (P values≤0.05)
To test the ability of fluorofolin to inhibit P. aeruginosa DHFR in vivo, metabolomics were performed. As a positive control for DHFR inhibition, we turned to TMP.
Overnight P. aeruginosa PA14 cultures were diluted 1:150 in Gutnick Minimal Media and grown to early-mid exponential phase (OD600=0.4-0.6).
LC-MS analysis of metabolites was performed on Orbitrap Exploris 240 mass spectrometer coupled with hydrophilic interaction liquid chromatography (HILIC)^64. […] Flow rate was 0.15 mL/min, and column temperature was set at 25° C. […] The orbitrap resolution was 180,000 at m/z of 200. The maximum injection time was 200 ms, and the automatic gain control (AGC) target was 1000%. Raw mass spectrometry data were converted to mzXML format by MSConvert (ProteoWizard). Pick-peaking was done on El Maven (v0.8.0, Elucidata).

Assay [3] concerns PA14 mutants with disruptions in mexA, mexB and oprM. Description: MIC against MexAB-OprM transposon mutants. It is filed as cell-based, P. aeruginosa. The conditions noted are these: oprM transposon mutants vs wildtype PA14. As to the method:
FIG. 1I is the minimum inhibitory concentration of fluorofolin or trimethoprim against transposon mutants for each component of the MexAB-OprM efflux pump. MIC against wildtype PA14 was calculated to control for each drug stock. MIC values are representative of two independent replicates.
P. aeruginosa PA14 transposon mutants were generated by the Ausubel Lab (http://ausubellab.mgh.harvard.edu/cgi-bin/pa14/home.cgi). The MICs of fluorofolin and TMP against strains with disrupted MexA, MexB, and OprM were determined as above and compared to the parental strain. As transposon mutants in MexB were represented twice in this collection, the MIC was confirmed across both mutant strains.

`O=C(O)c1cn(C2CC2)c2cc(N3CCNCC3)c(F)cc2c1=O` [ciprofloxacin]: the “resistance of nfxB T39P mutants” value in assay [1] was “cross-resistant”.
For `COc1cc(Cc2cnc(N)nc2N)cc(OC)c1OC` [trimethoprim, reference compound], the MIC in the assay on P. aeruginosa PA14 is 125 µg/mL. Besides, in assay [2], the “abundance of AICAR and dUMP” value is on record as “significant upregulation”. Moreover, the “change of MIC in efflux pump mutants” value in assay [3] is reported as “large reductions in MIC”.
